Experimental data taken from patent publication US7273863B1, “Benzophenones as inhibitors of reverse transcriptase” (SmithKline Beecham Corporation, priority 1999, dated 2007).

Tests used:
NEV-R = test: MT4 cell assay, antiviral HIV activity (propidium iodide); type: cell-based; conditions: Human immunodeficiency virus 1, MT4, read-out: IC50 (nM) Range
WTRVA = test: HeLa cell assay (HIV-LTR β-galactosidase reporter); type: cell-based, HIV-1; conditions: Human immunodeficiency virus 1, Virus Type WTRVA, read-out: IC50 (nM) Range
Experimental: (§1) The HeLa cell assay was performed according to a modification of Kimpton J. and Emerman M., Detection of replication-competent and pseudotyped human immunodeficiency virus with a sensitive cell line on the basis of activation of an integrated β-galactosidase gene, J. Virol. 66:2232-2239 (1992), in which HIV-1 infection is detected by the activation of an HIV-LTR driven β-galactosidase reporter that is integrated into the genome of a CD4^+ HeLa cell line. Quantitation of β-galactosidase is achieved by measuring the activation of a chemiluminescent substrate (Tropix). The concentration of each compound required to inhibit 50% (IC50) of the HIV-1 induced β-galactosidase signal, relative to untreated controls, was determined for each isogenic, recombinant virus.
(§2) HeLa-CD4-LTR-β-gal cells were obtained from the NIH AIDS Research and Reference Reagent Program. Cells were propagated in DMEM containing 10% fetal bovine serum, 0.2 mg/ml geneticin and 0.1 mg/ml hygromycin B. Cells were routinely split by trypsinization when confluency reached 80% (approximately every 2 to 3 days).
(§3) DNA encoding the HIV-1 reverse transcriptase was subcloned from a M13 phage into a general shuttle vector, pBCSK+, as a ˜1.65 kbp EcoRI/HindIII ended DNA fragment. The HIV DNA insert of the resulting plasmid, pRT2, was completely sequenced on both strands prior to use in site directed mutagenesis experiments. Specific amino acid replacements were made using Stratagene Quick Change reagents and mutagenic oligonucleotides from Oligos. Following mutagenesis, the entire mutant RT coding sequence was verified by sequencing both DNA strands.
(§4) Mutant HIV-1 strains were isolated by a modified Recombinant Virus Assay (Kellam P. and Larder B., Recombinant virus assay: a rapid, phenotypic assay for assessment of drug susceptibility of human immunodeficiency virus type 1 isolates, Antimicrobial Agents and Chemotherapy, 38:23-30, 1994). 1×10^7 Jurkat T-cells (maintained in RPMI containing 10% fetal bovine serum, split 1:5 every 5 to 6 days) were co-transfected with EcoRI/HindIII digested mutant RT plasmid and Bst EII-digested HIV-1HXB2ΔRT DNA in the presence of DMRIE-C transfection reagent (Gibco) according to supplier's recommended protocol. Each mutant RT coding sequence was crossed into the RT-deleted HIV-1 viral DNA backbone by in vivo homologous recombination. Transfected cell cultures were expanded and monitored until syncitia formation and CPE were extensive. Virus was harvested by clear spin of the culture supernatants and frozen at −80 C as primary stock. Recombinant progeny virus was sequenced in the RT region to confirm the mutant genotype. Virus stocks were further expanded by infection of Jurkat cells, harvested and stored as frozen aliquots. Stocks were titered in HeLa MAGI cells for assay.
(§5) The HIV-1HXB2 mutants were titered in the HeLa MAGI assay system to determine the relative light units (RLU) per ml, a measure of infectivity relevant for this assay system. Virus stocks were diluted in a 2-fold series into DMEM containing 10% fetal bovine serum plus 20 ug/ml DEAE-dextran and assayed as described in the Experimental Protocol section, below.
(§6) 96-well microtiter plate(s) (Costar #3598) were seeded with 3×10^3 HeLa-CD4-LTR-β-gal in 100 μl DMEM containing 10% fetal bovine serum. Plates were placed in a 37° C., 5% CO2 humidified incubator overnight. The following day, mutant virus stocks were thawed in a room temperature water bath and diluted into DMEM containing 10% fetal bovine serum and 20 μg/ml DEAE-dextran to achieve an input of 1500 to 2000 RLU/ml. All media was removed with an 8 channel manifold aspirator and 35 μl (50 to 70 total RLUs) of diluted virus was added to each well for virus adsorption. Plates were placed in a 37° C., 5% CO2 humidified incubator for 1.5 to 2 hours.
(§7) Compound titration plates were prepared at 1.35× final concentration during the virus adsorption period. […]

[1] = system: isogenic HIV-1 RT mutant virus K103N; test: HeLa cell assay (HIV-LTR β-galactosidase reporter); type: cell-based; conditions: Human immunodeficiency virus 1, HeLa, read-out: IC50 (nM) Range
Experimental: as §1, §2, §3, §4, §5, §6, §7

[2] = system: isogenic HIV-1 RT mutant virus V106I; test: HeLa cell assay (HIV-LTR β-galactosidase reporter); type: cell-based; conditions: Human immunodeficiency virus 1, HeLa, read-out: IC50 (nM) Range
Experimental: as §1, §2, §3, §4, §5, §6, §7

[3] = system: isogenic HIV-1 RT mutant virus Y181C; test: HeLa cell assay (HIV-LTR β-galactosidase reporter); type: cell-based; conditions: Human immunodeficiency virus 1, HeLa, read-out: IC50 (nM) Range
Experimental: as §1, §2, §3, §4, §5, §6, §7

[4] = system: isogenic HIV-1 RT mutant virus V108I/Y181C; test: HeLa cell assay (HIV-LTR β-galactosidase reporter); type: cell-based; conditions: Human immunodeficiency virus 1, HeLa, read-out: IC50 (nM) Range
Experimental: as §1, §2, §3, §4, §5, §6, §7

[5] = system: isogenic HIV-1 RT mutant virus V106I/Y181C; test: HeLa cell assay (HIV-LTR β-galactosidase reporter); type: cell-based; conditions: Human immunodeficiency virus 1, HeLa, read-out: IC50 (nM) Range
Experimental: as §1, §2, §3, §4, §5, §6, §7

[6] = system: isogenic HIV-1 RT mutant virus L100I; test: HeLa cell assay (HIV-LTR β-galactosidase reporter); type: cell-based; conditions: Human immunodeficiency virus 1, HeLa, read-out: IC50 (nM) Range
Experimental: as §1, §2, §3, §4, §5, §6, §7

[7] = system: isogenic HIV-1 RT mutant virus G190A; test: HeLa cell assay (HIV-LTR β-galactosidase reporter); type: cell-based; conditions: Human immunodeficiency virus 1, HeLa, read-out: IC50 (nM) Range
Experimental: as §1, §2, §3, §4, §5, §6, §7

[8] = system: isogenic HIV-1 RT mutant virus K103N/G190A; test: HeLa cell assay (HIV-LTR β-galactosidase reporter); type: cell-based; conditions: Human immunodeficiency virus 1, HeLa, read-out: IC50 (nM) Range
Experimental: as §1, §2, §3, §4, §5, §6, §7

[9] = system: isogenic HIV-1 RT mutant virus P236L; test: HeLa cell assay (HIV-LTR β-galactosidase reporter); type: cell-based; conditions: Human immunodeficiency virus 1, HeLa, read-out: IC50 (nM) Range
Experimental: as §1, §2, §3, §4, §5, §6, §7

[10] = system: isogenic HIV-1 RT mutant virus K103N/Y181C; test: HeLa cell assay (HIV-LTR β-galactosidase reporter); type: cell-based; conditions: Human immunodeficiency virus 1, HeLa, read-out: IC50 (nM) Range
Experimental: as §1, §2, §3, §4, §5, §6, §7

[11] = system: isogenic HIV-1 RT mutant virus K103N/V108I; test: HeLa cell assay (HIV-LTR β-galactosidase reporter); type: cell-based; conditions: Human immunodeficiency virus 1, HeLa, read-out: IC50 (nM) Range
Experimental: as §1, §2, §3, §4, §5, §6, §7

[12] = system: isogenic HIV-1 RT mutant virus V108I; test: HeLa cell assay (HIV-LTR β-galactosidase reporter); type: cell-based; conditions: Human immunodeficiency virus 1, HeLa, read-out: IC50 (nM) Range
Experimental: as §1, §2, §3, §4, §5, §6, §7

[13] = system: isogenic HIV-1 RT mutant virus V106A/Y181C; test: HeLa cell assay (HIV-LTR β-galactosidase reporter); type: cell-based; conditions: Human immunodeficiency virus 1, HeLa, read-out: IC50 (nM) Range
Experimental: as §1, §2, §3, §4, §5, §6, §7

[14] = system: isogenic HIV-1 RT mutant virus K103N/P225H; test: HeLa cell assay (HIV-LTR β-galactosidase reporter); type: cell-based; conditions: Human immunodeficiency virus 1, HeLa, read-out: IC50 (nM) Range
Experimental: as §1, §2, §3, §4, §5, §6, §7

[15] = system: isogenic HIV-1 RT mutant virus P225H; test: HeLa cell assay (HIV-LTR β-galactosidase reporter); type: cell-based; conditions: Human immunodeficiency virus 1, HeLa, read-out: IC50 (nM) Range
Experimental: as §1, §2, §3, §4, §5, §6, §7

SMILES | IC50 (NEV-R) [nM] | IC50 (WTRVA) [nM] | IC50 [1] [nM] | IC50 [2] [nM] | IC50 [3] [nM] | IC50 [4] [nM] | IC50 [5] [nM] | IC50 [6] [nM] | IC50 [7] [nM] | IC50 [8] [nM] | IC50 [9] [nM] | IC50 [10] [nM] | IC50 [11] [nM] | IC50 [12] [nM] | IC50 [13] [nM] | IC50 [14] [nM] | IC50 [15] [nM]
Cc1cc(C#N)cc(C(=O)c2cc(Cl)ccc2OCC(=O)Nc2cnc(S(N)(=O)=O)cc2C)c1 [Compound 587] | < 10 | < 10 | < 10 | < 10 | < 10 | < 10 | 11 to 100 | < 10 | < 10 | < 10 | < 10 | < 10 | < 10 | < 10 | < 10 | < 10 | < 10
Cc1cc(S(N)(=O)=O)ccc1NC(=O)COc1ccc(Cl)cc1C(=O)c1cc(F)cc(F)c1 [Compound 62] | < 10 | < 10 | < 10 | < 10 | < 10 | < 10 | 11 to 100 | < 10 | < 10 | 11 to 100 | 11 to 100 | 11 to 100 | < 10 | < 10 | 11 to 100 | < 10 | < 10
Cc1cc(C#N)cc(C(=O)c2cc(Cl)ccc2OCC(=O)Nc2ccc(OCCCN3CC=CC3)cc2C)c1 [Compound 593] | < 10 | < 10 | < 10 | < 10 | < 10 | < 10 | 11 to 100 | < 10 | < 10 | < 10 | < 10 | < 10 | < 10 | < 10 | < 10 | < 10 | < 10
CCc1cc(C#N)cc(C(=O)c2cc(Cl)ccc2OCC(=O)Nc2ccc(S(N)(=O)=O)cc2C)c1 [Compound 498] | < 10 | < 10 | < 10 | < 10 | < 10 | < 10 | 11 to 100 | < 10 | < 10 | < 10 | < 10 | < 10 | < 10 | < 10 | < 10 | < 10 | < 10
